Article PMC5897531, “Identification of an Alarm Pheromone-Binding Chemosensory Protein From the Invasive Sycamore Lace Bug Corythucha ciliata (Say)” (Frontiers in Physiology, 2018)
Like-named read-outs stand apart in the source and are kept apart here. Marks after values point to notes of the source that are not given here. Values belong to the compound of their own block, whether it stands above or below them.

Key:
CcilCSP2 = CcilCSP2 (Corythucha ciliata, UniProt A0A2S0M1B9); test: Fluorescence competitive binding assay with 1-NPN
Sequence of CcilCSP2 (A0A2S0M1B9 entry or part of it): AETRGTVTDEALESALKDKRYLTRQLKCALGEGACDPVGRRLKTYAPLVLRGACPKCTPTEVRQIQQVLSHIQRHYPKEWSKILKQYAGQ
Method: Briefly, the sequence of CcilCSP2 encoding the mature CSP protein was expressed in Escherichia coli BL21 (DE3) competent cells (Transgen). Cells were grown at 37°C until OD600 ≈ 0.60, when expression was induced with 1 mM IPTG. After incubating an additional 8 h at 28°C, cells were harvested by centrifugation. The purification of CcilCSP2 was performed using HisTrap affinity columns (GE Healthcare Biosciences, Uppsala, Sweden).

c18915_g1 = target: T1, c18915_g1 (Corythucha ciliata, UniProt A0A2S0M1C0); test: direct fluorescence titration; format: binding; settings: fluorescent probe; conditions presumably as for CcilCSP2
T1 construct: gene CSP8; full length 133 aa
T1 sequence (A0A2S0M1C0 22-133): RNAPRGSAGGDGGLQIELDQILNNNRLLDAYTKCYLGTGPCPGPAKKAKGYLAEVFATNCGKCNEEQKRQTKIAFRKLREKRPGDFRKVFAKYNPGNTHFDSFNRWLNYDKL

sycamore lace bug nymphs [1] = test: Petri dish test, behavioral response of nymphs; format: in vivo, Corythucha ciliata; settings: for Chi-square value, choice of nymphs: compound vs. hexane, 20 μl on filter paper, 5 min; for behavioral response of nymphs: petri dish
Method: One test was conducted in a petri dish (15 cm diameter) at 22–26°C. Two filter papers (3 cm diameter) were placed symmetrically on both sides of the petri dish. 20 μl of the compound to be tested (1, 0.1 or 0.01 μg/μl) was added to one filter paper. 20 μl hexane was added as a control to the other filter paper. The filter papers were placed at a distance of 5 cm from the start position at the center of the petri dish where 40 sycamore lace bug nymphs were released. The number of nymphs on each filter paper was recorded after 5 min. Each assay was replicated four times with a new petri dish for each replicate. The choice between hexane and a blank was also tested. […] The numbers of insect on each filter paper were compared using chi-square analysis.

sycamore lace bug adults = test: Y-shaped olfactometer, behavioral response of adults; format: in vivo, Corythucha ciliata; settings: Y-tube; for χ2, choice of adults: P > 0.05; for behavioral response of adults: 1 and 0.1 μg/μl
Method: Compounds that potentially bind with high affinity to CSPs were purchased from Sigma (St Louis, MO, USA) to test their effects on sycamore lace bug behavior. The behavioral response of sycamore lace bug adults (1:1 sex ratio) was assessed using a Y-shaped olfactometer. The length of the arms and the diameter of the tube were 10 and 5 cm, respectively. The authentic standards were dissolved in hexane at concentrations of 1 and 0.1 μg/μl. Then 10 μl of solution was applied to a 1 cm^2 filter paper. The filter paper was placed in one arm of the Y-shaped olfactometer, and 10 μl hexane was placed in the other arm as a control. The amount of airflow was set at 250 ml/min. In each experiment, a single sycamore lace bug adult was released at the base of the olfactometer stem and observed for 10 min. During this time, insects not making any choice were recorded as having “no response”. Insects entering more than halfway into the olfactometer arm and staying for at least 10 s were recorded as having a “response”. After 10 insects were tested, the orientation of the Y-shaped olfactometer was reversed to avoid environmental effects, and the inner wall was cleaned with degreased cotton containing acetone, washed with ethanol, and then washed with distilled water and dried in an oven. The experiment was conducted in a behavioral observation chamber at 26°C. The experiment was repeated seven times, and each time the behavior of 10 insects was tested. The choice of insects between chemicals and hexane was compared using chi-square analysis.

sycamore lace bug nymphs [2] = test: Petri dish test, behavioral response of nymphs; format: in vivo, Corythucha ciliata; settings: Geraniol vs. Phenyl benzoate
sycamore lace bug nymphs [3] = test: Plant leaf test, repellency rate of nymphs; format: in vivo, Corythucha ciliata; settings: for behavioral response of nymphs: plant leaves
Method: To further confirm the behavioral effects of each active substance, the behavioral response of sycamore lace bug nymphs was tested by directly applying the compounds to a P. × acerifolia leaf. […] Photographs were then taken at 0, 2, and 4 min to assess the repellency rate, which was calculated using the following formula: Repellency rate = M/T^*100, where T = the total number of sycamore lace bug nymphs in the tested colony at 0 min, and M = the number of sycamore lace bug nymphs that had moved at 2 or 4 min. Experimental conditions were the same as for the petri dish experiments. Hexane was used as the mock treatment. The repellency rates of the nymphs in each treatment were compared using a Kruskal Wallis H-test followed by Mann-Whitney U-tests.

Structure (SMILES): c1ccc(Nc2cccc3ccccc23)cc1 [1-NPN, N-Phenyl-1-naphthylamine]
Kd (CcilCSP2): 2.08 µM

Structure (SMILES): c1ccc(Nc2cccc3ccccc23)cc1 [1-NPN]
Kd (c18915_g1): Affinity of c18915_g1 for 1-NPN

Kd (CcilCSP2): 15.2 µM
Displacement of 1-NPN (CcilCSP2; competitive binding): more than 50%
Structure (SMILES): CC(C)=CCC/C(C)=C/CO [Geraniol, E-3,7-dimethyl-2,6-octadien-1-ol, reference compound]
Chi-square value, choice of nymphs (sycamore lace bug nymphs [1]; 0.01 μg/μl): 5.444^a^*
Chi-square value, choice of nymphs (sycamore lace bug nymphs [1]; 0.1 μg/μl): 10.965^**
Chi-square value, choice of nymphs (sycamore lace bug nymphs [1]; 1 μg/μl): 13.928^**
behavioral response of nymphs (sycamore lace bug nymphs [1]): significantly repelled
χ2, choice of adults (sycamore lace bug adults; 0.1 μg/μl vs. hexane): 1.52
χ2, choice of adults (sycamore lace bug adults; 1 μg/μl vs. hexane): 0.069
behavioral response of adults (sycamore lace bug adults): not significantly affected
Chi-square value, choice of nymphs (sycamore lace bug nymphs [2]; 0.01 μg/μl): 0.214
Chi-square value, choice of nymphs (sycamore lace bug nymphs [2]; 0.1 μg/μl): 0.267
Chi-square value, choice of nymphs (sycamore lace bug nymphs [2]; 1 μg/μl): 0.083
repellency rate (sycamore lace bug nymphs [3]; 2 min, 0.01 μg/μl): 25%^*
repellency rate (sycamore lace bug nymphs [3]; 2 min, 0.1 μg/μl): 50%^*
repellency rate (sycamore lace bug nymphs [3]; 2 min, 1 μg/μl): 72.41%^*
repellency rate (sycamore lace bug nymphs [3]; 4 min, 0.01 μg/μl): 25%^*
repellency rate (sycamore lace bug nymphs [3]; 4 min, 0.1 μg/μl): 57.14%^*
repellency rate (sycamore lace bug nymphs [3]; 4 min, 1 μg/μl): 79.41%^*
behavioral response of nymphs (sycamore lace bug nymphs [3]): significantly repelled

Structure (SMILES): c1ccc2ccccc2c1 [Naphthalene]
Chi-square value, choice of nymphs (sycamore lace bug nymphs [1]; 0.01 μg/μl): 0.243
Chi-square value, choice of nymphs (sycamore lace bug nymphs [1]; 0.1 μg/μl): 1.190
Chi-square value, choice of nymphs (sycamore lace bug nymphs [1]; 1 μg/μl): 0.333

Displacement of 1-NPN (CcilCSP2; competitive binding): more than 50%
Kd (CcilCSP2; competitive binding, 1-NPN as fluorescent reporter, calculated from IC50, read-out: KD): 13.9 µM
Structure (SMILES): O=C(Oc1ccccc1)c1ccccc1 [Phenyl benzoate]
Chi-square value, choice of nymphs (sycamore lace bug nymphs [1]; 0.01 μg/μl): 0.615
Chi-square value, choice of nymphs (sycamore lace bug nymphs [1]; 0.1 μg/μl): 14.629^**
Chi-square value, choice of nymphs (sycamore lace bug nymphs [1]; 1 μg/μl): 5.818^*
behavioral response of nymphs (sycamore lace bug nymphs [1]): significantly repelled
χ2, choice of adults (sycamore lace bug adults; 0.1 μg/μl vs. hexane): 0.083
χ2, choice of adults (sycamore lace bug adults; 1 μg/μl vs. hexane): 0.176
behavioral response of adults (sycamore lace bug adults): not significant
repellency rate (sycamore lace bug nymphs [3]; 2 min, 0.01 μg/μl): 12%
repellency rate (sycamore lace bug nymphs [3]; 2 min, 0.1 μg/μl): 50%^*
repellency rate (sycamore lace bug nymphs [3]; 2 min, 1 μg/μl): 63.16%^*
repellency rate (sycamore lace bug nymphs [3]; 4 min, 0.01 μg/μl): 13%
repellency rate (sycamore lace bug nymphs [3]; 4 min, 0.1 μg/μl): 57.14%^*
repellency rate (sycamore lace bug nymphs [3]; 4 min, 1 μg/μl): 73.68%^*
behavioral response of nymphs (sycamore lace bug nymphs [3]): repellent effect of phenyl benzoate was further confirmed

Structure (SMILES): Cc1ccc(C(C)C)c(O)c1 [Thymol]
Chi-square value, choice of nymphs (sycamore lace bug nymphs [1]; 0.01 μg/μl): 0.400
Chi-square value, choice of nymphs (sycamore lace bug nymphs [1]; 0.1 μg/μl): 0.111
Chi-square value, choice of nymphs (sycamore lace bug nymphs [1]; 1 μg/μl): 0.125

Structure (SMILES): Cc1ccc(C(C)C)cc1 [p-Cymene]
Chi-square value, choice of nymphs (sycamore lace bug nymphs [1]; 0.01 μg/μl): 0.083
Chi-square value, choice of nymphs (sycamore lace bug nymphs [1]; 0.1 μg/μl): 0.026
Chi-square value, choice of nymphs (sycamore lace bug nymphs [1]; 1 μg/μl): 0.048
